# Where “and” joins values, the source holds several entries; their conditions need not be identical. Equal entries are not always repeated. Calls of active or inactive are those of the source.
# Key:
# Cytochrome P450 2D6 = Cytochrome P450 2D6 (Homo sapiens, UniProt P10635);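 also: CYP2D6 member of a cytochrome P450 panel assay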
# Cytochrome P450 3A4 [1] = target: T1, Cytochrome P450 3A4 (Homo sapiens, UniProt P08684)
# Cytochrome P450 2C9 [2] = target: T2, Cytochrome P450 2C9 (Homo sapiens, UniProt P11712)
# T2 sequence (P11712 whole entry): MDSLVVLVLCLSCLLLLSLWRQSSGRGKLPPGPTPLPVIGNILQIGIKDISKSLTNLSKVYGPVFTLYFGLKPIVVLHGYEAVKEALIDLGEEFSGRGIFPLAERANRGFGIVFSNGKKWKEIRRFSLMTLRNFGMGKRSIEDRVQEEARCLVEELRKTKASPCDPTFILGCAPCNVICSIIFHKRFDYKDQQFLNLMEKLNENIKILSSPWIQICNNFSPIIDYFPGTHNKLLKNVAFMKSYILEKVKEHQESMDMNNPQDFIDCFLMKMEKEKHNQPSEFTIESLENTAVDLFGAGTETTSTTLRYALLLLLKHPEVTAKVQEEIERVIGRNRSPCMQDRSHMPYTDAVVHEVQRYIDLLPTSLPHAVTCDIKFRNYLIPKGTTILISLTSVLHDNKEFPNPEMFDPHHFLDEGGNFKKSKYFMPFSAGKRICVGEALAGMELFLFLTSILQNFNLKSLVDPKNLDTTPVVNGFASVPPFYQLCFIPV
# Nonstructural protein 1 = Nonstructural protein 1 (Influenza A virus, UniProt Q194T2); assay type: functional, Influenza A virus (A/California/07/2009(H1N1))
# Chain of Nonstructural protein 1 (Q194T2 whole entry): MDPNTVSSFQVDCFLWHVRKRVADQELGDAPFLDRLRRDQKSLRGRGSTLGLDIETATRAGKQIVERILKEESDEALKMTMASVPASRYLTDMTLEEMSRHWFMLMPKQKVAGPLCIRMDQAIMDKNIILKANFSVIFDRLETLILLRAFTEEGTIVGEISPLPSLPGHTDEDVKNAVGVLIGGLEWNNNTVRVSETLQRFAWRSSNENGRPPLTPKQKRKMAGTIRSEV
# Cytochrome P450 1A2 = target: T3, Cytochrome P450 1A2 (Homo sapiens, UniProt P05177);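 also: PubChem cytochrome P450 panel assay, CYP1A2 panel member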
# T3 sequence (P05177 whole entry): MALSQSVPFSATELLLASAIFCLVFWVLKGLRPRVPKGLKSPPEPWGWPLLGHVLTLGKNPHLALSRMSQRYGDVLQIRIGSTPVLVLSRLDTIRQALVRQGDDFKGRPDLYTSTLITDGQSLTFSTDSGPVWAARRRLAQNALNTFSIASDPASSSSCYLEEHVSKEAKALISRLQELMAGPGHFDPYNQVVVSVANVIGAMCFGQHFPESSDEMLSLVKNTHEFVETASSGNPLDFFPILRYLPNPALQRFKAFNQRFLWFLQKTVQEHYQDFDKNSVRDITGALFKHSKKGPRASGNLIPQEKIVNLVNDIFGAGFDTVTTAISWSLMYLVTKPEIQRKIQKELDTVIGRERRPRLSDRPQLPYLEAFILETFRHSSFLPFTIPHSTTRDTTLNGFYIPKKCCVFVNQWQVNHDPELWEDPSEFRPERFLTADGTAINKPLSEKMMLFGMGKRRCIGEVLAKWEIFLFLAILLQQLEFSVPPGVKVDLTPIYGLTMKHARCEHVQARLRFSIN
# Cytochrome P450 2C9 [3] = target: T2, Cytochrome P450 2C9; remark: listed apart in the source
# Protein skinhead-1 = target: T4, Protein skinhead-1 (Caenorhabditis elegans, UniProt P34707); assay type: functional
# T4 sequence (P34707 whole entry): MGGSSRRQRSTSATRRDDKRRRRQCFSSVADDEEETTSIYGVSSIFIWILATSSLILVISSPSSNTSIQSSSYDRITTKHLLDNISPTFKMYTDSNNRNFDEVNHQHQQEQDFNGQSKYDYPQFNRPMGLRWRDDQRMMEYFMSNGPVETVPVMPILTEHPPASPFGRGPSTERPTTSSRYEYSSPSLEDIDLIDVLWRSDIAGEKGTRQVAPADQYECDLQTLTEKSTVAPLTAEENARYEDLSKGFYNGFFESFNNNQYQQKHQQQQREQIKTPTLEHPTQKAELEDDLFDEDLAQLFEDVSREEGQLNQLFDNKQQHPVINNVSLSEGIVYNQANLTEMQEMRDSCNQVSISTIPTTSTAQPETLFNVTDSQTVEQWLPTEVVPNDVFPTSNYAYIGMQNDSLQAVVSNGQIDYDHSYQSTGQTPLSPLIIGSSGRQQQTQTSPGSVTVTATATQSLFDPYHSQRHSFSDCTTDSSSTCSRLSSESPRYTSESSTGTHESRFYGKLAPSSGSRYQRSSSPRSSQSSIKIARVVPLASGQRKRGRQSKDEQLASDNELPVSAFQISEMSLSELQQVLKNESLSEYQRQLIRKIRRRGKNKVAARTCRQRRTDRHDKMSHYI
# H9c2 = experiment: cells; assay type: functional, cell-based; conditions: Rattus norvegicus, H9c2, Myocardium;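 also: confirmatory concentration-response retest of ultra-high-throughput screening hits for modulation of myocardial damage; cell death induced by hydrogen peroxide oxidative stress; compound pretreatment for 60 min then peroxide exposure for 2 h; potency is for protecting the cells against peroxide damage rather than for killing them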
# Cytochrome P450 3A4 [4] = target: T1, Cytochrome P450 3A4; conditions: Potency
# Vero = experiment: cells; assay type: functional, cell-based; conditions: Chlorocebus sabaeus
# T1 sequence (P08684 whole entry): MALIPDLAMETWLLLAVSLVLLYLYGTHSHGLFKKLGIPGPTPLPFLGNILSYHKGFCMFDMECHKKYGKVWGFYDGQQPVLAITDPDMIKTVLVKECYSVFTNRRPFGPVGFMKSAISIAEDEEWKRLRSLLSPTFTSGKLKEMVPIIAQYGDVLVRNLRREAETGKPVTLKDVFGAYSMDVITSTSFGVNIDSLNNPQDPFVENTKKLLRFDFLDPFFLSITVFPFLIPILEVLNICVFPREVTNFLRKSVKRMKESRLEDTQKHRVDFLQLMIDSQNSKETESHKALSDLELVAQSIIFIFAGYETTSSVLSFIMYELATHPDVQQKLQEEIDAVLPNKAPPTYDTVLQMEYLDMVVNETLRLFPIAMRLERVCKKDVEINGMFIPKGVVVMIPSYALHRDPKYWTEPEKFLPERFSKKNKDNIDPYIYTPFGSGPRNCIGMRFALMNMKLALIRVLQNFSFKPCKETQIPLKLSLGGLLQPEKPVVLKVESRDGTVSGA
# Chain of Cytochrome P450 2D6 (P10635 whole entry): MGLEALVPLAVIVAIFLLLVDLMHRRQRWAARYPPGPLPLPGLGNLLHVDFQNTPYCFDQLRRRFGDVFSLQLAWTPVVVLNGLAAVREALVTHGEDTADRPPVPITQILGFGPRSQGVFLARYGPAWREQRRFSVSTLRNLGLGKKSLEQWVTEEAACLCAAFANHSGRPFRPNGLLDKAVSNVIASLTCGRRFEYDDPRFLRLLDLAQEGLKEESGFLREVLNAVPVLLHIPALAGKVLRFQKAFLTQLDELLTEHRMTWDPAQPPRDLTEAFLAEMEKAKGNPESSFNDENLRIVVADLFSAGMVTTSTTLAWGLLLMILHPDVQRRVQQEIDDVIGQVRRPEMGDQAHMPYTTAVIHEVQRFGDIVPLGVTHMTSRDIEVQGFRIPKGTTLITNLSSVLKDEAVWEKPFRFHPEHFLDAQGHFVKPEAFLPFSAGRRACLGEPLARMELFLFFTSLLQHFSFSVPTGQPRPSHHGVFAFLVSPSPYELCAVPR
compound,measurement,setting,value
CCCCN=C(S)NNC(=O)c1csc2c1CCC(C)C2 (configuration not stated),AC50,Cytochrome P450 2D6,22.4 µM (inconclusive)
same,AC50,Cytochrome P450 3A4 [1],15.8 µM (inconclusive)
same,AC50,Cytochrome P450 2C9 [2],inconclusive
c1ccc(-c2cn(C[C@H]3CC[C@@H]([C@@H]4CC[C@H](Cn5cc(-c6ccccn6)nn5)O4)O3)nn2)nc1,IC50,Nonstructural protein 1,5.72 µM (active)
Cc1[nH]c2ccc(O)cc2c1CCN,AC50,Cytochrome P450 1A2,31.6 µM (inconclusive) and 20 µM (inconclusive)
same,AC50,Cytochrome P450 2C9 [3],39.8 µM (inconclusive)
same,AC50,Cytochrome P450 2D6,20 µM (inconclusive) and 39.8 µM (inconclusive)
same,AC50,Cytochrome P450 2C9 [2],39.8 µM (inconclusive)
CC1=NN(c2ccccc2)C(=O)/C1=C\C=C1/N(C)c2ccccc2C1(C)C,IC50,Protein skinhead-1,21.9 µM (active)
same,IC50,Nonstructural protein 1,11.8 µM (active)
Cc1ccc(OCC(=O)N/N=C/c2cccc3cccnc23)cc1,IC50,H9c2,14.1 µM (active)
same,IC50,Nonstructural protein 1,25.6 µM (active)
CCC1=C2CC[C@H]3C(=O)N(C)C(=O)[C@H]3[C@H]2[C@@]2(C)C(=O)N(CC(=O)OC)C(=O)N2C1=O,AC50,Cytochrome P450 3A4 [4],25.1 µM (inconclusive)
Cc1cc(NC(=O)c2ccc3nccnc3c2)ccc1Br,IC50,Vero,> 25 µM (active)
CO[C@H]1COC(=O)C/C=C\[C@@H](C)COC(=O)[C@H]2CCCN2C(=O)C/C=C\[C@H]1C,AC50,Cytochrome P450 2C9 [2],inconclusive
CC[C@@H](c1ccccc1)n1c(=O)n2n(c1=O)[C@H]1[C@H](O)[C@H]3O[C@@H]3/C(=N/OC/C=C(\C)CCC=C(C)C)[C@@H]1CC2,AC50,Cytochrome P450 3A4 [1],3.98 µM (inconclusive)
same,AC50,Cytochrome P450 2C9 [2],inconclusive
